Results reported in PubChem BioAssay AID248 (DTP/NCI, 2004).
Inconclusive results and toxic doses are left out. Rule as the data show it: active = T/C of 150% or more; inactive = T/C below 125%.

Tested on: L1210 leukemia ip in BDF1 mice, survival T/C
Assay: NCI In Vivo Anticancer Drug Screen. Data for tumor model L1210 Leukemia (intraperitoneal) in B6D2F1 (BDF1) mice
Conditions: endpoint: mean survival time, higher = longer survival
Summary of the method: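 Transplanted-tumor mice were given test agent; controls received vehicle only. Survival readings from the two groups were divided (treated over control).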

Measured: T/C

COc1ccc(CN(C(C)=O)c2cc(C)c([N+](=O)[O-])cc2OC)cc1OC
inactive: dose: 100.0 mg/kg/injection, schedule: Q01DX009 (ip), vehicle: saline 90 % of control | dose: 100.0 mg/kg/injection, schedule: Q04DX003 (ip), vehicle: saline 93 % of control | dose: 200.0 mg/kg/injection, schedule: Q01DX009 (ip), vehicle: saline 94 % of control | dose: 200.0 mg/kg/injection, schedule: Q04DX003 (ip), vehicle: saline 100 % of control | dose: 400.0 mg/kg/injection, schedule: Q01DX009 (ip), vehicle: saline 96 % of control | dose: 400.0 mg/kg/injection, schedule: Q04DX003 (ip), vehicle: saline 98 % of control

O=[N+]([O-])c1ccc(S(=O)(=O)O)c([N+](=O)[O-])c1.[Ag]
inactive: dose: 3.12 mg/kg/injection, schedule: Q01DX009 (ip), vehicle: DMSO 95 % of control | dose: 6.25 mg/kg/injection, schedule: Q01DX009 (ip), vehicle: DMSO 97 % of control | dose: 12.5 mg/kg/injection, schedule: Q01DX009 (ip), vehicle: DMSO 95 % of control | dose: 12.5 mg/kg/injection, schedule: Q01DX009 (ip), vehicle: other 93 % of control | dose: 12.5 mg/kg/injection, schedule: Q04DX003 (ip), vehicle: other 104 % of control | dose: 25.0 mg/kg/injection, schedule: Q04DX003 (ip), vehicle: other 98 % of control | dose: 50.0 mg/kg/injection, schedule: Q04DX003 (ip), vehicle: other 103 % of control

NNC(=O)c1ccc(Cl)c(Cl)c1
inactive: dose: 100.0 mg/kg/injection, schedule: Q01DX001 (ip), vehicle: Klucel (hydroxypropylcellulose) (HPC) 104 % of control | dose: 200.0 mg/kg/injection, schedule: Q01DX001 (ip), vehicle: Klucel (hydroxypropylcellulose) (HPC) 117 % of control | dose: 400.0 mg/kg/injection, schedule: Q01DX001 (ip), vehicle: Klucel (hydroxypropylcellulose) (HPC) 112 % of control
